# Laboratory results reported in BigSolDB 2.1.
smiles,measurement,setting,value
CC(=O)N[C@@H](Cc1ccc(O)cc1)C(=O)O,solubility (mole fraction),"in isopropanol, 303.15 K",0.122
same,solubility (mole fraction),"in isopropanol, 308.15 K",0.134
same,solubility (mole fraction),"in isopropanol, 313.15 K",0.148
same,solubility (mole fraction),"in isopropanol, 318.15 K",0.159
same,solubility (mole fraction),"in isopropanol, 323.15 K",0.171
same,solubility (mole fraction),"in methyl acetate, 283.15 K",0.00475
same,solubility (mole fraction),"in methyl acetate, 288.15 K",0.00537
same,solubility (mole fraction),"in methyl acetate, 293.15 K",0.00621
same,solubility (mole fraction),"in methyl acetate, 298.15 K",0.00723
same,solubility (mole fraction),"in methyl acetate, 303.15 K",0.0085
same,solubility (mole fraction),"in methyl acetate, 308.15 K",0.00995
same,solubility (mole fraction),"in methyl acetate, 313.15 K",0.0115
same,solubility (mole fraction),"in methyl acetate, 318.15 K",0.0139
same,solubility (mole fraction),"in methyl acetate, 323.15 K",0.0162
same,solubility (mole fraction),"in n-butanol, 283.15 K",0.0529
same,solubility (mole fraction),"in n-butanol, 288.15 K",0.058
same,solubility (mole fraction),"in n-butanol, 293.15 K",0.0653
same,solubility (mole fraction),"in n-butanol, 298.15 K",0.0715
same,solubility (mole fraction),"in n-butanol, 303.15 K",0.0789
same,solubility (mole fraction),"in n-butanol, 308.15 K",0.0892
same,solubility (mole fraction),"in n-butanol, 313.15 K",0.0911
same,solubility (mole fraction),"in n-butanol, 318.15 K",0.0979
same,solubility (mole fraction),"in n-butanol, 323.15 K",0.108
same,solubility (mole fraction),"in n-butyl acetate, 283.15 K",0.00136
same,solubility (mole fraction),"in n-butyl acetate, 288.15 K",0.00179
same,solubility (mole fraction),"in n-butyl acetate, 293.15 K",0.00214
same,solubility (mole fraction),"in n-butyl acetate, 298.15 K",0.00252
same,solubility (mole fraction),"in n-butyl acetate, 303.15 K",0.003
same,solubility (mole fraction),"in n-butyl acetate, 308.15 K",0.00351
same,solubility (mole fraction),"in n-butyl acetate, 313.15 K",0.00388
same,solubility (mole fraction),"in n-butyl acetate, 318.15 K",0.00413
same,solubility (mole fraction),"in n-butyl acetate, 323.15 K",0.00435
same,solubility (mole fraction),"in n-propyl acetate, 283.15 K",0.00163
same,solubility (mole fraction),"in n-propyl acetate, 288.15 K",0.00185
same,solubility (mole fraction),"in n-propyl acetate, 293.15 K",0.00232
same,solubility (mole fraction),"in n-propyl acetate, 298.15 K",0.00261
same,solubility (mole fraction),"in n-propyl acetate, 303.15 K",0.00289
same,solubility (mole fraction),"in n-propyl acetate, 308.15 K",0.00366
same,solubility (mole fraction),"in n-propyl acetate, 313.15 K",0.0041
same,solubility (mole fraction),"in n-propyl acetate, 318.15 K",0.00509
same,solubility (mole fraction),"in n-propyl acetate, 323.15 K",0.00537
same,solubility (mole fraction),"in sec-butanol, 283.15 K",0.08
same,solubility (mole fraction),"in sec-butanol, 288.15 K",0.0885
same,solubility (mole fraction),"in sec-butanol, 293.15 K",0.0967
same,solubility (mole fraction),"in sec-butanol, 298.15 K",0.103
same,solubility (mole fraction),"in sec-butanol, 303.15 K",0.113
same,solubility (mole fraction),"in sec-butanol, 308.15 K",0.125
same,solubility (mole fraction),"in sec-butanol, 313.15 K",0.137
same,solubility (mole fraction),"in sec-butanol, 318.15 K",0.146
same,solubility (mole fraction),"in sec-butanol, 323.15 K",0.159
same,solubility (mole fraction),"in water, 283.15 K",0.00875
same,solubility (mole fraction),"in water, 288.15 K",0.00935
same,solubility (mole fraction),"in water, 293.15 K",0.0115
same,solubility (mole fraction),"in water, 298.15 K",0.0154
same,solubility (mole fraction),"in water, 303.15 K",0.021
same,solubility (mole fraction),"in water, 308.15 K",0.0292
same,solubility (mole fraction),"in water, 313.15 K",0.0459
same,solubility (mole fraction),"in water, 318.15 K",0.0726
same,solubility (mole fraction),"in water, 323.15 K",0.106
